Experiments:
[1] = target: T1, Trichoderma reesei CEL5A endoglucanase II (Trichoderma reesei, UniProt P07982); experiment: CMC hydrolysis by CEL5A endoglucanase II with tannic acid; assay type: biochemical; conditions: 1 mM tannic acid, 50° C., 4 hours
T1 construct: made in house
Experimental: The effect of tannic acid on Trichoderma reesei CEL7B endoglucanase I and Trichoderma reesei CEL5A endoglucanase II was also evaluated using carboxymethylcellulose (CMC) as substrate. The hydrolysis reactions were conducted in duplicate using the “mini-plate-scale” hydrolysis procedure described in Example 33, except that 1 mM tannic acid and 10 to 20 g of carboxymethylcellulose (CMC) and 1 to 20 mg of enzyme per liter 50 mM sodium acetate pH 5.0 were used at 50° C. for 4 hours. Soluble reducing sugars were analyzed by a p-hydroxybenzoic acid hydrazide (PHBAH) assay according to the method of Lever, 1972, Anal. Biochem. 47: 273-279, instead of by HPLC as described in Examples 30 and 33. Reactions without the addition of the enzymes served as controls to correct background absorption. Spectrophotometric measurements were performed using a SPECTRAMAX™ 340PC reader (Molecular Devices Corp., Sunnyvale, Calif., USA) with COSTAR® 96-well microplates (Cole-Parmer Instrument Co, Vernon Hills, Ill., USA).

[2] = target: T2, Trichoderma reesei CEL7A cellobiohydrolase I (Trichoderma reesei, UniProt P62694, INS458P/R459P); experiment: PASC hydrolysis by CEL7A cellobiohydrolase I with tannic acid; assay type: biochemical
T2 construct: made in house
Experimental: The inhibitory effect of tannic acid was determined on Trichoderma reesei CEL7A cellobiohydrolase 1, Trichoderma reesei CEL6A cellobiohydrolase II, Trichoderma reesei CEL7B endoglucanase 1, and Trichoderma reesei CEL5A endoglucanase II using PASC as substrate.
To quantify the inhibition, tannic acid was evaluated in the hydrolysis of PASC.

[3] = test system: T3, Cellulolytic Enzyme Composition #1; experiment: PCS hydrolysis by Cellulolytic Enzyme Composition #1 with added compounds; assay type: biochemical, Trichoderma reesei
T3 construct: other: PASC hydrolysis; mean ± SD; 0.01 g enzyme; Dixon plot linear regression intercept (1/Rate); other: AVICEL; rate from hydrolysis difference (%) at 0 and 6 hours; rate from hydrolysis difference; fused on or other part: The A. oryzae beta-glucosidase is the mature chain secreted behind the Humicola insolens endoglucanase V signal peptide, which is cleaved off
Experimental: Corn stover was pretreated at the U.S. Department of Energy National Renewable Energy Laboratory (NREL), […], Colo., USA, using dilute sulfuric acid. The following conditions were used for the pretreatment: 1.4 wt % sulfuric acid at 195° C. for 4.5 minutes. According to limit digestion with excess cellulase enzymes, the water-insoluble solids in the pretreated corn stover (PCS) contained 59.5% cellulose. Prior to use, the PCS was washed with a large volume of deionized water until soluble acid and sugars were removed. The dry weight of the water-washed PCS was 19.16%.
The effect of a mixture of tannic acid, ellagic acid, epicatechin, and six lignin constituent compounds (4-hydroxyl-2-methylbenzoic acid, vanillin, coniferyl alcohol, coniferyl aldehyde, ferulic acid, and syringaldehyde) was determined on the hydrolysis of PCS by Cellulolytic Enzyme Composition #1 or Cellulolytic Enzyme Composition #2. […] Cellulolytic Enzyme Composition #1 or Cellulolytic Enzyme Composition #2 was added at 0.25 g per liter. Reactions without the addition of the compounds served as controls. The capped tubes were incubated at 50° C. in an INNOVA® 4080 incubator shaker (New Brunswick Scientific Co., Inc., Edison, N.J., USA) at 150 rpm.
Aliquots of the suspensions, sampled over time, were filtered by centrifugation using a 0.45 μm MULTISCREEN® HV membrane (Millipore, Billerica, Mass., USA) at 2000 rpm for 15 minutes using a SORVALL® RT7 centrifuge (Thermo Fisher Scientific, Waltham, Mass., USA). When not used immediately, the filtered aliquots were frozen at −20° C. Sugar concentrations of the samples diluted in 0.005 M H2SO4 were measured after elution by 0.005 M H2SO4 at a flow rate of 0.4 ml/minute from a 4.6×250 mm AMINEX® HPX-87H column (Bio-Rad, Hercules, Calif., USA) at 65° C. with quantitation by integration of glucose and cellobiose using refractive index detection (CHEMSTATION®, AGILENT® 1100 HPLC, Agilent Technologies, Santa Clara, Calif., USA) calibrated with standards of glucose and cellobiose. The resultant equivalents were used to calculate the percentage of cellulose conversion for each reaction.
The degree of cellulose conversion to glucose plus cellobiose sugars (conversion, %) was calculated using the following equation:
Conversion(%)=(glucose+cellobiose×1.053)(mg/ml)×100×162/cellulose(mg/ml)×180)=(glucose+cellobiose×1.053)(mg/ml)×100/(cellulose(mg/ml)×1.111)
In this equation the factor 1.111 reflects the weight gain in converting cellulose to glucose, and the factor 1.053 reflects the weight gain in converting cellobiose to glucose. Cellulose in PCS was determined by a limit digest of PCS to release glucose and cellobiose.
Example 30 was repeated except that each compound was tested separately. […] Reactions without the addition of each compound served as controls.
The effect of OPC or flavonol on the hydrolysis of PCS by Cellulolytic Enzyme Composition #1 or Cellulolytic Enzyme Composition #2 was determined according to the procedure described in Example 30. OPC and flavonol were present at a concentration of 1 mM. Reactions without the addition of the compounds served as controls.
Methyl gallate and ellagic acid were compared at 10 mM to 1 mM tannic acid in the hydrolysis of PCS by Cellulolytic Enzyme Composition #1.

[4] = target: T3, Cellulolytic Enzyme Composition #1; experiment: PASC hydrolysis by Cellulolytic Enzyme Composition #1 with tannic acid; assay type: biochemical, Trichoderma reesei; conditions: mean ± SD, 0.01 g enzyme per liter, pH 5.0, 50° C., read-out: I50 (inhibitor concentration leading to 50% loss of hydrolysis rate)
Description: Initial hydrolysis rates were obtained from the first two hydrolysis time points (i.e., soluble sugar measurements) (with <20% hydrolysis extent in general, rate=(hydrolysis difference)/(time difference)). Double-reciprocal plots (1/(initial rate) vs 1/[cellulose] as function of tannic acid concentration) indicated a “mixed” type inhibition, but their complexity prevented extraction of simple inhibitor constants. Initial rate vs tannic acid concentration yielded an I50 (inhibitor concentration leading to 50% loss of hydrolysis rate) of 0.2±0.1 or 0.27±0.07 mM on PASC or AVICEL® hydrolysis, respectively

[5] = 50 g PCS, 0.25 g enzyme per liter, methyl gallate and ellagic acid 10 mM, tannic acid 1 mM

T2 sequence (P62694 other isoform, or with tags, fused parts or gaps INS458P/R459P): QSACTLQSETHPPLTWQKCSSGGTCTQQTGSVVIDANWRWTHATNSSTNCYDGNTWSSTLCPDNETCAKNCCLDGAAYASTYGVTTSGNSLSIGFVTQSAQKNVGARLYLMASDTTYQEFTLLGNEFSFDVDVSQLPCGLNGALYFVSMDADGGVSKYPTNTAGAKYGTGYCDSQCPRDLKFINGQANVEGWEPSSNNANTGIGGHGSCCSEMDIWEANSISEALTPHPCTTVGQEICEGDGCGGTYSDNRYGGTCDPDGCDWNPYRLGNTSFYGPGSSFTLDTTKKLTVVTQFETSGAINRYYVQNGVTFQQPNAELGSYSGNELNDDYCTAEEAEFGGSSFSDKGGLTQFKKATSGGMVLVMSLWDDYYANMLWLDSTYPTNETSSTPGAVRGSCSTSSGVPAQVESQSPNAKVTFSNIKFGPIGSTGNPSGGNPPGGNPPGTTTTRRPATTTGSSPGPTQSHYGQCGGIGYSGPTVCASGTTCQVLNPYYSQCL
T1 sequence (P07982 22-418): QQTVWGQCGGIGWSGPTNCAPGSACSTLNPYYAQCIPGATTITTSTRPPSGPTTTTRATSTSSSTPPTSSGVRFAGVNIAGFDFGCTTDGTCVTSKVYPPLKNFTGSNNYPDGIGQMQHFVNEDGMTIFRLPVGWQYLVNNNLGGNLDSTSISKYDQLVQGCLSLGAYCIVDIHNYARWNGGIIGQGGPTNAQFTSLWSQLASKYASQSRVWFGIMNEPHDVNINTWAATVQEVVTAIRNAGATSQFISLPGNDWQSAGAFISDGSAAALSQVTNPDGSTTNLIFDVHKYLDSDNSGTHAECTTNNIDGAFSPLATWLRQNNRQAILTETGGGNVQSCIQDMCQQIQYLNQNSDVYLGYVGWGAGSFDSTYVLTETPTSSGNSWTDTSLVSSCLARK

Structure (SMILES): O=C(OC[C@H]1O[C@@H](OC(=O)c2cc(O)c(O)c(OC(=O)c3cc(O)c(O)c(O)c3)c2)[C@H](OC(=O)c2cc(O)c(O)c(OC(=O)c3cc(O)c(O)c(O)c3)c2)[C@@H](OC(=O)c2cc(O)c(O)c(OC(=O)c3cc(O)c(O)c(O)c3)c2)[C@@H]1OC(=O)c1cc(O)c(O)c(OC(=O)c2cc(O)c(O)c(O)c2)c1)c1cc(O)c(O)c(OC(=O)c2cc(O)c(O)c(O)c2)c1 [tannic acid, Tannic acid]
- effect on CMC hydrolysis by CEL5A endoglucanase II [1]: significantly inhibited
- IC50 [2]: ~1000 µM
- effect on PASC hydrolysis by CEL7A cellobiohydrolase I ([2]; 1 mM tannic acid, 2 g PASC per liter, over 4 hours): significantly inhibited
- type of inhibition (double reciprocal plots), CEL7A CBHI ([2]; PASC, 0.1 to 0.7 mM tannic acid): mixed
- effect on hydrolysis of PCS by Cellulolytic Enzyme Composition #1 ([3]; 1 mM each compound, 43.4 g PCS and 0.25 g enzyme per liter, pH 5.0, 50° C.): significantly inhibited
- loss in initial rate of PCS hydrolysis [3, 5]: ~70%
- loss in the extent of PCS hydrolysis at day 4 [3, 5]: ~60%
- IC50 [4]: 200 ± 100 µM
